Columns and labels:
[1] = Clearance in monkey at 0.5 mg/kg, iv; format: ADME, organism-based, Macaca mulatta; settings: rhesus monkey, in vivo
THP-1 = experiment: Inhibition of TNF-alpha secretion in LPS-stimulated human THP-1 cells pretreated with compound for 24 hrs followed by LPS-induction and measured after 4 hrs by ELISA analysis; format: functional, cell-based; settings: dose 0.3-10 µM
[2] = Tmax in mouse at 50 mg/kg, po; format: ADME, organism-based; settings: in vivo
[3] = AUC (0 to infinity) in mouse at 50 mg/kg, po; format: ADME, organism-based; settings: in vivo
[4] = C0 in monkey at 0.5 mg/kg, iv; format: ADME, organism-based, Macaca mulatta; settings: rhesus monkey, in vivo
[5] = biological target: T1, Protein deacetylase HDAC6 (Homo sapiens, UniProt Q9UBN7); experiment: Inhibition of N-terminal GST-tagged human recombinant HDAC6 expressed in Spodoptera frugiperda incubated for 60 mins by fluorescence based analysis
T1 sequence (Q9UBN7 whole entry): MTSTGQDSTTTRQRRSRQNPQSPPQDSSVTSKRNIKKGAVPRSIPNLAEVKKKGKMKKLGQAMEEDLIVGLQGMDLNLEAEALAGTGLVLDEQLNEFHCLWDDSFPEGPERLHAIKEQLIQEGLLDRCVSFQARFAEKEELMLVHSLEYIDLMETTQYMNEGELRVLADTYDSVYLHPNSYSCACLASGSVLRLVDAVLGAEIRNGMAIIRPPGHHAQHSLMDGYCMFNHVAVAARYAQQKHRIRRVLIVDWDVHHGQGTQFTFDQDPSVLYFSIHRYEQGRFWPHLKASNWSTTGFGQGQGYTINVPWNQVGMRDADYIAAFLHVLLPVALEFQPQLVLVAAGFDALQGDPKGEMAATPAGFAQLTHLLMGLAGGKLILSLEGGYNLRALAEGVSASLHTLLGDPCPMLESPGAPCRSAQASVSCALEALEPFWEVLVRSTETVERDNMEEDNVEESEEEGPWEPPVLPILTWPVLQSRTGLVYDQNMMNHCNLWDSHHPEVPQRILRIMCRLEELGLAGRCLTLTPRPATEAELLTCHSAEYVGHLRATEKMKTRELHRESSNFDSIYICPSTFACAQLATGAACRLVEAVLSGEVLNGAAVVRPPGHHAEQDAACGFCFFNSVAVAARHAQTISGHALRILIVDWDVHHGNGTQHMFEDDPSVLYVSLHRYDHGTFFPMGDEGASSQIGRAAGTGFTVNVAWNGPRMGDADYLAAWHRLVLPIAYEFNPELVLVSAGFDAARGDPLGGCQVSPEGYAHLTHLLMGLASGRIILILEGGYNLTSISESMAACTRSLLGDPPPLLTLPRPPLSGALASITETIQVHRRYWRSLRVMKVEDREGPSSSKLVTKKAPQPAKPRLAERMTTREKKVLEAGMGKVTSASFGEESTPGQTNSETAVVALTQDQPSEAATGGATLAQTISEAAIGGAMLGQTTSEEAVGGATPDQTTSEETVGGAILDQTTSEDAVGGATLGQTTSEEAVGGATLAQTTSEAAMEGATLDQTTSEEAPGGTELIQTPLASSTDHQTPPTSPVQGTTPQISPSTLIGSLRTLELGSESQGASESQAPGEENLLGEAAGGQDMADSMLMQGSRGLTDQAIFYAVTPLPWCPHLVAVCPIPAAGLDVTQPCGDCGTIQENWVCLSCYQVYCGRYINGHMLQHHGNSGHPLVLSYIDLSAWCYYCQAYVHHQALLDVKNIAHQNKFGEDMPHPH

Histone deacetylase 5 = Histone deacetylase 5 (Homo sapiens, UniProt Q9UQL6); experiment: Inhibition of human recombinant HDAC5 using Boc-Lys(tri-fluoroacetyl)-AMC as substrate by fluorescence based analysis
Sequence of Histone deacetylase 5 (Q9UQL6 whole entry): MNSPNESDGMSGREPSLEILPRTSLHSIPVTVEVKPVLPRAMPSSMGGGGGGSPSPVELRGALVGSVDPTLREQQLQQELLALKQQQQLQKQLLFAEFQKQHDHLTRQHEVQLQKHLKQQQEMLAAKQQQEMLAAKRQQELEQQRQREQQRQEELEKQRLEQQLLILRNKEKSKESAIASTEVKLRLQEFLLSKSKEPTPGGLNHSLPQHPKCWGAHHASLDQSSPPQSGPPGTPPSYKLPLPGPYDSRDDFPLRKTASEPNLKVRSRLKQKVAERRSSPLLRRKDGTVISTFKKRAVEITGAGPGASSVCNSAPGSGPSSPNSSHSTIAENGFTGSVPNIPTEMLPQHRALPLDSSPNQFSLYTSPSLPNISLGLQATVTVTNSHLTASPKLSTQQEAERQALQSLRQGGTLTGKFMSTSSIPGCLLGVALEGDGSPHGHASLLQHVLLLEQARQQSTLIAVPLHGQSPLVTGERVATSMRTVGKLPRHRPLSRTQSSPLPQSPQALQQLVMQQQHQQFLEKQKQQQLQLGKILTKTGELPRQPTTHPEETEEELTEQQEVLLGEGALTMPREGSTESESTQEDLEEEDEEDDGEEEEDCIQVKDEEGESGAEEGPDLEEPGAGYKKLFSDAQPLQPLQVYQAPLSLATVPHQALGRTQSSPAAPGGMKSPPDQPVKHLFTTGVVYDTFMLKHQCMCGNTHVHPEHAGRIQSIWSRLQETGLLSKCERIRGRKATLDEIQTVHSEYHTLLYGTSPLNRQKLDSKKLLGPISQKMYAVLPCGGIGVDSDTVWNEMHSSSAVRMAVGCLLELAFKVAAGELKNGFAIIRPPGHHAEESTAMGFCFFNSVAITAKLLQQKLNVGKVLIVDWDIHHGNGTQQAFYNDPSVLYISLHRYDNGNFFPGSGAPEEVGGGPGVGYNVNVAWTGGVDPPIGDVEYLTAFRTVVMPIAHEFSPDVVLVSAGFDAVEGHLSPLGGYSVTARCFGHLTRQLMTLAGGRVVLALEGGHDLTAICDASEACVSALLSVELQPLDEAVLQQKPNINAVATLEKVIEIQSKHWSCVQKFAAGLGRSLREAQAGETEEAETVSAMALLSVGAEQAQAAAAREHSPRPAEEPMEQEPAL

SMILES: CC1(C)CC(=O)c2c(C(F)(F)F)nn(Cc3ccc(C(=O)NO)cc3)c2C1
- CL [1]: 55.7 mL/min/kg
- inhibition (THP-1): Dose-Dependent Effect
- Tmax [2]: 4.98 min
- AUC(0-inf) [3]: 1150 ng·h/mL
- C0 [4]: 1040 ng/mL

SMILES: O=C(NO)c1ccc(Cn2c3c(c4ccccc42)C(=O)CCC3)cc1
- IC50 [5]: 16 nM
- IC50 (Histone deacetylase 5): > 20000 nM
